Results published in patent US20250099383A1, “COMPOSITIONS AND METHODS FOR DELIVERY OF NUCLEIC ACIDS” (Poseida Therapeutics, Inc., priority 2022, published 2025).

Key:
[1] = Body weight change of mice after LNP administration; type: in vivo, BALB/C mice; settings: for Ave weight change (gram) n = 3: 24 hrs after 0.5 mg/kg LNP encapsulating firefly luciferase mRNA, adult female BALB/C mice; for % Body Weight Change 24 hr: LNP compositions of Table 25, 0.5 mg/kg fLuciferase mRNA i.v., 24 hr post-administration vs baseline
Experimental: The mice above were also monitored for changes in body weight after LNP delivery. Mice were manually weighed on a scale before LNP dosage and then weighed 24 hrs after administration of 0.5 mg/kg of LNP article encapsulating Cleancap firefly luciferase mRNA. The average of weight change n=3 is reported below.
In addition, the body weight of mice treated with the LNP compositions of Table 25 was assessed prior to intravenous administration and twenty-four hours post-administration and the body weights at baseline and post-treatment were compared. The average percentage of body weight change for each group of mice treated with each LNP composition of Table 25 is shown in Table 28. […]

liver cells [2] = experiment: In vivo LNP delivery of firefly luciferase mRNA to liver, bioluminescent imaging (BLI); design: species or system BALB/C mice; settings: 0.5 mg/kg fLuciferase mRNA i.v., BLI at 4 hr; for Ave flux (p/s) n = 3: adult female BALB/C mice, LNP as in Example 66; for Mean Liver Luciferase Flux (p/s): LNP compositions of Table 25, adult female BALB/C, n=3
Experimental: Adult female BALB/C mice (n=3/group) were intravenously administered 0.5 mg/kg of 5′-CleanCap-fLuciferase mRNA (TriLink Biotech) formulated with LNP compositions as described in Example 66. One group of mice was treated with vehicle (PBS, Thermo Fisher Scientific, USA) as a negative control.
(§1) The location and extent of luciferase expression in treated and control mice were determined at 4 hr by bioluminescent imaging (BLI) of anesthetized mice using an IVIS Lumina in vivo imaging system (Perkin Elmer) according to the manufacturer's instructions. Briefly, mice were anesthetized using isoflurane in oxygen, and placed supine on a heated stage. Mice were then administered D-luciferin (Perkin-Elmer #122799) IP, and BLI was performed.
Adult female BALB/C mice (n=3/group) were intravenously administered 0.5 mg/kg of 5′-CleanCap-fLuciferase mRNA (TriLink Biotech) formulated with the LNP compositions shown in Table 25. One group of mice was treated with vehicle (PBS, Thermo Fisher Scientific, USA) as a negative control. […]

[3] = Physical characteristics of LNPs (particle size, PDI); type: physicochemical; settings: for PDI DNA / Particle Size (nm) DNA: LNP with Fluc DNA, compound/DOPE/Cholesterol/DMG-PEG2000 38/50/10.0/2.0, Lipid:DNA 45:1 (w/w); for PDI RNA / Particle Size (nm) RNA: LNP with Fluc mRNA, compound/DOPE/Cholesterol/DMG-PEG2000 41.44/45.85/10/2.7, Lipid:RNA 40:1 (w/w)
Experimental: LNP compositions of the present disclosure comprising exemplary compounds of Formula (I) were prepared by combining various percentages of an exemplary compound of Formula (I), the phospholipid DOPE, the structural lipid cholesterol (Chol) and 1,2-dimyristoyl-sn-glycerol methoxypolyethylene glycol (DMG-PEG2000; Avanti Polar Lipids, Alabaster, Alabama, USA).
Individual 25 mg/ml stock solutions were prepared by solubilizing the lipids in 200-proof HPLC-grade ethanol and stock solutions were stored at −80° C. until formulated. At the time of formulation, the lipid stock solutions were briefly allowed to equilibrate to room temp and then placed on a hot plate maintained at a temperature range of 50-55° C.
A 1 mg/ml solution of the desired mRNA or DNA to be incorporated into the LNPs was added to 150 mM sodium acetate buffer (pH 5.2) to form a stock solution and kept on ice. The aqueous mRNA or DNA was then added to the lipids as shown in Table 4 or 5 and hand-mixed vigorously with a single channel pipettor.
The resultant mRNA or DNA LNP compositions were then transferred to a Repligen Float-A-Lyzer dialysis device-having a molecular weight cut off (MWCO) of 8-10 kDa (Spectrum Chemical Mfg. Corp, CA, USA) and processed by dialysis against phosphate buffered saline (PBS) (dialysate: dialysis buffer volume at least 1:200 v/v), pH 7.4 overnight at 4° C. (or alternatively room temperature for at least 4 hours), to remove the 25% ethanol and achieve a complete buffer exchange. In some experiments the LNPs were further concentrated by in an Amicon® Ultra-4 centrifugal filter unit, MWCO-30 kDa (Millipore Sigma, USA) spun at ˜4100 x g in an ultracentrifuge. The mRNA and DNA LNPs were then stored at 4° C. until further use.
LNP compositions of the present disclosure comprising mRNA or DNA encoding firefly luciferase (hereafter “Fluc”; TriLink) and COMPOUNDS 5-49 were prepared as described in Example 61 by combining one of COMPOUNDS 5-49, the phospholipid DOPE, the structural lipid cholesterol (Chol) and 1,2-dimyristoyl-sn-glycerol methoxypolyethylene glycol (DMG-PEG2000) in the percentages presented in Tables 6 and 7:
The physical characteristics of the resulting LNPs were analyzed.
A 1 mg/ml solution of the 5′-CleanCap--fLuciferase mRNA (TriLink Biotech) to be incorporated into the LNPs was added to 150 mM sodium acetate buffer (pH 5.2) to form a stock solution and kept on ice. The lipid phase was mixed with the aqueous mRNA phase inside a microfluidic chip using a NanoAssemblr® instrument (Precision Nanosystems, Vancouver, BC, Canada) according to the manufacturer's instructions to form LNP compositions comprising encapsulated mRNAs.
The average particle size diameter of the LNPs was approximately 75-150 nm.

liver cells [4] = experiment: In vivo LNP delivery of nanoplasmid CMV-firefly luciferase DNA to liver of juvenile mice, BLI; settings: juvenile female BALB/C mice age 14 days; 0.25 mg/kg nanoplasmid CMV-firefly luciferase retroorbital i.v.; BLI at 4 hr
Experimental: Juvenile female BALB/C mice of age 14 days (n=4/group) were retroorbitally intravenously administered 0.25 mg/kg of nanoplasmid CMV-firefly luciferase (Nature Technology Corp) formulated with LNP compositions as described in Example 66. One group of mice was treated with vehicle (PBS, Thermo Fisher Scientific, USA) as a negative control.
as §1

liver cells [5] = experiment: In vivo LNP delivery of firefly luciferase DNA to liver of adult mice, BLI; design: species or system BALB/C mice; settings: BLI at 24 hr; for Mean Liver Luciferase Flux (p/s): AM-TTR firefly luciferase nanoplasmid DNA 0.5 mg/kg, adult BALB/C, n=3
Experimental: as §1
as §1, with “4 hr and 48” for “4”
as §1, with “24” for “4”
One group of mice was treated with an LNP composition of the present disclosure comprising Compound No. 30 as a positive control.
as §1, with “hr for RNA delivery, or 48 hr for DNA delivery,” for “hr”

SMILES	PDI DNA [3]	Particle Size (nm) DNA [3]	PDI RNA [3]	Particle Size (nm) RNA [3]	Ave weight change (gram) n = 3 [1]	Ave flux (p/s) n = 3 (liver cells [2])	Ave flux (p/s) n = 4 (liver cells [4])	% Body Weight Change 24 hr [1]	Mean Liver Luciferase Flux (p/s) (liver cells [2])	luciferase expression by BLI after DNA LNP, liver specific promoter (in words) (liver cells [5]; 0.5 mg/kg total DNA, nanoplasmid firefly luciferase under AM-TTR promoter, adult BALB/C mice)	Mean Liver Luciferase Flux (p/s) (liver cells [5]; LNP (Table 47) with Compound No. 30 prepared according to Alternative General Procedure K)	Mean Liver Luciferase Flux (p/s) (liver cells [5]; LNP (Table 47) with Compound No. 30 prepared according to Alternative General Procedure L)	Mean Liver Luciferase Flux (p/s) (liver cells [5]; LNP (Table 47) with Compound No. 30 prepared according to Example 21)
CC(C)CCCC(C)CCCC1CCC(C(=O)OCCOC(=O)CCN(CCCN2CCN(CCCN(CCC(=O)OCCOC(=O)C3CCC(CCCC(C)CCCC(C)C)CC3)CCC(=O)OCCOC(=O)C3CCC(CCCC(C)CCCC(C)C)CC3)CC2)CCC(=O)OCCOC(=O)C2CCC(CCCC(C)CCCC(C)C)CC2)CC1 (centres unmarked) [Compound 16, ((3,3′,3″,3″-((piperazine-1,4-diylbis(propane-3,1-diyl))bis(azanetriyl))tetrakis(propanoyl))tetrakis(oxy))tetrakis(ethane-2,1-diyl)tetrakis(4-(4,8-dimethylnonyl)cyclohexanecarboxylate)]	0.108	326.3 nm	0.142	354.0 nm	−3.60 gram	3.67E+10 p/s	8905000000 p/s						
CC(C)=CCCC1=CCC(C(=O)OCCOC(=O)CCN(CCCN2CCN(CCCN(CCC(=O)OCCOC(=O)C3CC=C(CCC=C(C)C)CC3)CCC(=O)OCCOC(=O)C3CC=C(CCC=C(C)C)CC3)CC2)CCC(=O)OCCOC(=O)C2CC=C(CCC=C(C)C)CC2)CC1 (centres unmarked) [Compound 22]	0.141	255.5 nm	0.176	330.9 nm	−6.40 gram	9.27E+09 p/s		+1.2%	1.84e10 p/s				
CC(C)=CCCC1=CCC(C(=O)OCCOC(=O)CCN(CCCN(C)CCCN(CCC(=O)OCCOC(=O)C2CC=C(CCC=C(C)C)CC2)CCC(=O)OCCOC(=O)C2CC=C(CCC=C(C)C)CC2)CCC(=O)OCCOC(=O)C2CC=C(CCC=C(C)C)CC2)CC1 (centres unmarked) [Compound 23]	0.189	332.8 nm	0.184	434.4 nm	−5.97 gram	6.24E+09 p/s	3012500000 p/s						
CC(C)CCCC1CCC(C(=O)OCCOC(=O)CCN(CCCN2CCN(CCCN(CCC(=O)OCCOC(=O)C3CCC(CCCC(C)C)CC3)CCC(=O)OCCOC(=O)C3CCC(CCCC(C)C)CC3)CC2)CCC(=O)OCCOC(=O)C2CCC(CCCC(C)C)CC2)CC1 (centres unmarked) [Compound 29]	0.081	317.2 nm	0.197	422.3 nm	−6.07 gram	2.44E+10 p/s	9120000000 p/s	−2.4%	3.02e10 p/s				

Now from value to molecule, other results behind:

PDI DNA [3]	Particle Size (nm) DNA [3]	PDI RNA [3]	Particle Size (nm) RNA [3]	SMILES	Ave weight change (gram) n = 3 [1]	Ave flux (p/s) n = 3 (liver cells [2])	Ave flux (p/s) n = 4 (liver cells [4])	% Body Weight Change 24 hr [1]	Mean Liver Luciferase Flux (p/s) (liver cells [2])	luciferase expression by BLI after DNA LNP, liver specific promoter (in words) (liver cells [5]; 0.5 mg/kg total DNA, nanoplasmid firefly luciferase under AM-TTR promoter, adult BALB/C mice)	Mean Liver Luciferase Flux (p/s) (liver cells [5]; LNP (Table 47) with Compound No. 30 prepared according to Alternative General Procedure K)	Mean Liver Luciferase Flux (p/s) (liver cells [5]; LNP (Table 47) with Compound No. 30 prepared according to Alternative General Procedure L)	Mean Liver Luciferase Flux (p/s) (liver cells [5]; LNP (Table 47) with Compound No. 30 prepared according to Example 21)
0.167	276.9 nm	0.170	326.7 nm	CC(C)CCCC1CCC(C(=O)OCCOC(=O)CCN(CCCN(C)CCCN(CCC(=O)OCCOC(=O)C2CCC(CCCC(C)C)CC2)CCC(=O)OCCOC(=O)C2CCC(CCCC(C)C)CC2)CCC(=O)OCCOC(=O)C2CCC(CCCC(C)C)CC2)CC1 (centres unmarked) [Compound 30]	−5.67 gram	3.26E+10 p/s	7332500000 p/s	−2.8%	1.28e11 p/s	successfully delivered DNA to liver cells	31400000 p/s	29600000 p/s	21266666.67 p/s
0.063	267.9 nm	0.145	339.9 nm	CC(C)CCCC1CCC(C(=O)OCCOC(=O)CCN(CCC(=O)OCCOC(=O)C2CCC(CCCC(C)C)CC2)CCN(CCN(CCC(=O)OCCOC(=O)C2CCC(CCCC(C)C)CC2)CCC(=O)OCCOC(=O)C2CCC(CCCC(C)C)CC2)CCN(CCC(=O)OCCOC(=O)C2CCC(CCCC(C)C)CC2)CCC(=O)OCCOC(=O)C2CCC(CCCC(C)C)CC2)CC1 (centres unmarked) [Compound 31]	−4.10 gram	2.24E+09 p/s							
